In patent publication US10588608B2, “Sampling systems and related materials and methods” (Progenity Inc., priority 2016, dated 2020):
Like-named read-outs stand apart in the source and are kept apart here.

Experiments:
bacterial cells = conditions: preservative with TENT, PCR or plating, FIG. 59A/59B
bacteria = assay: Bactericidal preservatives added to bacteria, cell counts by flow cytometry or cell plating; assay type: cell-based; conditions: cell counts over 3 days, FIG. 60
[1] = high concentration culture, 4.5×10^6 cells
[2] = low concentration culture, 8.6×10^4 cells

Row | SMILES | viability of bacteria (bacterial cells; [1]) | viability of bacteria (bacterial cells; [2]) | viability of bacteria over time (bacteria)
1 | OCCOc1ccccc1 [2-phenoxyethanol] | reduce the viability of bacteria | reduce the viability of bacteria | 
2 | O=C(NCO)N(CO)C1(CO)C(=O)NC(=O)N1CO (centres unmarked) [diazolidinyl urea] |  |  | reduced the viability of bacteria
3 | C/C=C/C=C/C(=O)O [sorbic acid] | reduce the viability of bacteria | reduce the viability of bacteria | 
4 | C[CH2][Hg][S]c1ccccc1C(=O)[O-].[Na+] [thimerosal] | reduce the viability of bacteria | reduce the viability of bacteria | reduced the viability of bacteria
